Experimental findings from patent US8426448B2, “1,5-diphenyl-pyrrolidin-2-one compounds as CB-1 ligands” (Eli Lilly and Company, priority 2008, dated 2013) are described below.

The test system of one data set is Male NIH Swiss mice. Nature of the data set: Forced swim test (FST). The format is in vivo. On the set-up: key to Dunett's Test (0.05) * against vehicle, # against Imipramine: * against vehicle; # against Imipramine. The conditions noted are these: for minimum effective dose (MED) in forced swim test: Dunett's Test (0.05) statistically significant; for Seconds of immobility: last 4 min of 6 min swim, n = 8; for Dunett's Test (0.05) * against vehicle, # against Imipramine: immobility time. An excerpt: The forced swim test is a well established animal model for depression, anxiety and avolition (lack of motivation)(Porsolt, et al. Nature (1977) 266, 730) (J. M. Witkin et al., Trends Pharmacol Sci. 2005 26:609-17). It can also be used as a model for the treatment of negative symptoms of schizophrenia.
Male NIH Swiss mice (Harlan Sprague-Dawley) are housed 12 mice/cage for 7-10 days prior to testing. On the day of testing, mice weighing 25-30 g, are brought to the testing room at least 1 hr. prior to dosing. Mice are dosed (p.o.) at 6-8 min. intervals with either vehicle (1% CMC/0.5% SLS/0.08% povidone/0.05 antifoam for CB1 inverse agonists) or test compound and put it into a clean cage (4 mice/cage).
To test, mice are placed individually in clear plastic cylinders (about 10 cm diameter×25 cm height) filled to 6 cm with water at 22-25° C. for six min. The duration of immobility during the last 4 min. is recorded. A mouse is regarded as immobile when floating motionless or making only those movements necessary to keep its head above the water.
The immobility time (in seconds) is analyzed by ANOVA using Dunnett's test. The minimum effective dose (MED) is considered to be the lowest dose of test compound at which a statistically significant decrease in the immobility time is observed versus the vehicle control.

Another data set in a line: Rat oral bioavailability. The format is in vivo. As to conditions: Sprague-Dawley, plasma, fasted male SD rats, IV 0.25 mg/kg (20% MEOP/80% water), PO 1 mg/kg (1% NaCMC/0.5% SLS/0.05% antifoam), based on AUC0-∞. The method, then: (§1) Cohorts of three or four 250-450 gram male Sprague-Dawley rats or approximately 10 kg Beagle dogs (female or male) are used. […] Dogs are administered i.v. by cannulated cephalic vein and blood collections are by jugular vein. Animals are first dosed at 0.25 mg/kg i.v. and blood samples (0.2 mL) are then collected using EDTA as an anticoagulant at 0.0830, 0.25, 0.50, 1, 2, 4, 8, 12, 24, 48, 72, 96, and 120 hours. Next after at least two days and after 18-24 hours fasting, the animals are dosed at 1.0 mg/kg by oral gavage. During the course of a study the total of blood (ml) collected is not to exceed 1% of total body weight in grams. Should larger blood volumes be required, the sampled blood volume is replace with heparinized whole blood from a donor animal. When using a cross-over study design, rats receive a volume of heparinized whole blood following the final sample of each study day approximately equal to that removed during study.
(§2) Compound plasma concentrations are measured by LC/MS/MS assays. Data are then analyzed using standard non-compartmental pharmacokinetic analysis. Oral bioavailability is calculated as: (AUC0-infinity,oral/AUC0-infinity,i.v.)×(Dose,i.v./Dose,oral)×100%

A short description of another data set: Dog oral bioavailability. The conditions noted are these: plasma; fasted male beagle dog; IV 0.25 mg/kg, PO 1 mg/kg; Mean±SD, n=3; based on AUC0-24hr. The data set is classed as in vivo. The protocol:
as §1, §2

Another data set deals with T1, rCB-1 (Rattus norvegicus, UniProt P20272).
T1 construct: purchased Applied Cell Sciences, Rockville, Md; host or cells: CHO cell membranes
Nature of the data set: rCB1-CHO antagonist mode SPA GTP-γ-35S binding assay. The format is biochemical. As to conditions: antagonist mode vs methanandamide; read-out: rCB-1 SPA GTPγS CHO Membrane Antagonist Kb. The protocol:
(§3) Compounds of the present invention may be tested for functional activity at the CB-1 and CB-2 receptors in both agonist and antagonist modes using SPA (Scintillation Proximity Assay) based GTP-γ-^35S binding assays. All assay components are prepared in assay buffer (20 mM HEPES, 100 mM NaCl, 5 mM MgCl2, pH 7.4) at room temperature. Semi-log dilutions of test compound are prepared in assay buffer containing BSA (0.125% final conc.) for the agonist mode assays. For the antagonist mode assays, test compounds are prepared in the same manner but also include an 80% efficacious dose of a full agonist (methanandamide). GTP-γ^35S binding for the antagonist assay may be measured in a 96 well format using a modification of an antibody capture technique previously described. (DeLapp, N W, et al. (1999) J Pharmacol Exp Ther 289:946-955.) The CB-2 receptor agonist activity may be measured using a similar method using hCB2-Sf9 membranes. The CB-1 receptor agonist activity may be measured using a whole membrane capture technique using hCB1-CHO membranes. All incubations are done at room temperature.
(§4) hCB1-CHO or rCB1-CHO membranes (Applied Cell Sciences, Rockville, Md.) and GDP (1 μM final) are added to ice cold assay buffer and homogenized. […] Plates are then centrifuged at 700×g for 10 min. and the radioactivity counted.
(§5) Data are analyzed as follows: Background is subtracted from all wells. […] Percent antagonist inhibition is calculated by first normalizing the data to the signal generated by a saturating concentration of the full agonist (methanandamide). Then the data are analyzed using a 4-parameter logistic reduced fit (Activity Base™ and XLFit3™ from IDBS, Emeryville, Calif.). Kb values are determined using a modification of the Cheng-Prusoff relationship: Kb=IC50/(1+[agonist]/EC50), where “IC50” is determined from a four parameter fit of displacement curves, “[agonist]” is the agonist challenge concentration (nM), and “EC50” is determined from a four parameter fit of a full agonist concentration response curve (Cheng and Prusoff 1973). […]

The target of data set [1] is T2, hCB-2 (Homo sapiens, UniProt P34972).
T2 construct: purchased Perkin Elmer, Boston, Mass; host or cells: Sf9 cell membranes
Nature of the data set: hCB2-Sf9 antagonist mode SPA GTP-γ-35S binding assay. The data set is classed as biochemical. The conditions noted are these: antagonist mode vs methanandamide; read-out: hCB-2 SPA GTPγS Sf9 Membrane Antagonist Kb. The protocol: (§6) Compounds of the present invention may be tested for functional activity at the CB-1 and CB-2 receptors in both agonist and antagonist modes using SPA (Scintillation Proximity Assay) based GTP-γ-^35S binding assays. All assay components are prepared in assay buffer (20 mM HEPES, 100 mM NaCl, 5 mM MgCl2, pH 7.4) at room temperature. Semi-log dilutions of test compound are prepared in assay buffer containing BSA (0.125% final conc.) for the agonist mode assays. For the antagonist mode assays, test compounds are prepared in the same manner but also include an 80% efficacious dose of a full agonist (methanandamide). GTP-γ^35S binding for the antagonist assay may be measured in a 96 well format using a modification of an antibody capture technique previously described. (DeLapp, N W, et al. (1999) J Pharmacol Exp Ther 289:946-955.) The CB-2 receptor agonist activity may be measured using a similar method using hCB2-Sf9 membranes. The CB-1 receptor agonist activity may be measured using a whole membrane capture technique using hCB1-CHO membranes. All incubations are done at room temperature. […]
(§7) Data are analyzed as follows: Background is subtracted from all wells. […] Percent antagonist inhibition is calculated by first normalizing the data to the signal generated by a saturating concentration of the full agonist (methanandamide). Then the data are analyzed using a 4-parameter logistic reduced fit (Activity Base™ and XLFit3™ from IDBS, Emeryville, Calif.). Kb values are determined using a modification of the Cheng-Prusoff relationship: Kb=IC50/(1+[agonist]/EC50), where “IC50” is determined from a four parameter fit of displacement curves, “[agonist]” is the agonist challenge concentration (nM), and “EC50” is determined from a four parameter fit of a full agonist concentration response curve (Cheng and Prusoff 1973). Mean Kb values are calculated as a mean of at least three independent determinations±standard error of the mean (SEM). […]

In data set [2] the target is T2, hCB-2. Briefly: hCB2-Sf9 agonist mode SPA GTP-γ-35S binding assay. The data set is classed as biochemical. The conditions noted are these: read-out: hCB-2 SPA GTPγS Sf9 Membrane Agonist Relative EC50. The protocol:
as §6
Data are analyzed as follows: Background is subtracted from all wells. […] Percent antagonist inhibition is calculated by first normalizing the data to the signal generated by a saturating concentration of the full agonist (methanandamide). […]

Data set [3] concerns the target T3, hCB-1 (Homo sapiens, UniProt P21554). Nature of the data set: hCB1-Sf9 antagonist mode SPA GTP-γ-35S binding assay. The format is biochemical. On the set-up: purchased Applied Cell Sciences, Rockville, Md. As to conditions: Sf9 membrane 22.7 μg; antagonist mode vs methanandamide; read-out: hCB-1 SPA GTPγS Sf9 Membrane 22.7 μg Antagonist Kb. The method, then: as §6, §7

The target in data set [4] is T3, hCB-1. Briefly: hCB1-CHO antagonist mode SPA GTP-γ-35S binding assay. The data set is classed as biochemical. As to conditions: antagonist mode vs methanandamide; read-out: hCB-1 SPA GTPγS CHO Membrane Antagonist Kb. On the set-up: purchased Applied Cell Sciences, Rockville, Md; host or cells: CHO cell membranes. The protocol: as §3, §4, §5
Data set [5] concerns the target T3, hCB-1. Nature of the data set: hCB1-CHO agonist mode SPA GTP-γ-35S binding assay. The format is biochemical. As to conditions: inverse agonism, read-out: hCB-1 SPA GTPγS CHO Membrane Agonist Relative EC50 inverse. On the set-up: purchased Applied Cell Sciences, Rockville, Md; host or cells: CHO cell membranes. The method, then:
as §3
hCB1-CHO membrane, GDP (1 μM final conc.), and saponin (10 μg/mL final conc., Sigma, St Louis, Mo.) are combined and prepared on ice as for the antagonist assays, above. Diluted test compounds, GTP-γ-^35S ([…] final conc.) and membranes are combined in the assay plate and incubated for 30 min. Then 1 mg/well Wheatgerm Agglutinin SPA beads (GE Healthcare, Piscataway, N.J.) are added, plates are sealed and vortexed and incubate for 1 hr. before spinning and counting in the same fashion as for the antagonist assays, above.
Data are analyzed as follows: Background is subtracted from all wells. Percent agonist efficacy is determine by normalizing agonist/inverse agonist dose response data to the response obtained for a full agonist (methanandamide). Percent antagonist inhibition is calculated by first normalizing the data to the signal generated by a saturating concentration of the full agonist (methanandamide). Then the data are analyzed using a 4-parameter logistic reduced fit (Activity Base™ and XLFit3™ from IDBS, Emeryville, Calif.). Kb values are determined using a modification of the Cheng-Prusoff relationship: Kb=IC50/(1+[agonist]/EC50), where “IC50” is determined from a four parameter fit of displacement curves, “[agonist]” is the agonist challenge concentration (nM), and “EC50” is determined from a four parameter fit of a full agonist concentration response curve (Cheng and Prusoff 1973). Mean Kb values are calculated as a mean of at least three independent determinations±standard error of the mean (SEM). […]

SMILES strings stand for the structures. Structures can show the parent of a compound that is named as a salt.

T3 sequence (P21554 whole entry): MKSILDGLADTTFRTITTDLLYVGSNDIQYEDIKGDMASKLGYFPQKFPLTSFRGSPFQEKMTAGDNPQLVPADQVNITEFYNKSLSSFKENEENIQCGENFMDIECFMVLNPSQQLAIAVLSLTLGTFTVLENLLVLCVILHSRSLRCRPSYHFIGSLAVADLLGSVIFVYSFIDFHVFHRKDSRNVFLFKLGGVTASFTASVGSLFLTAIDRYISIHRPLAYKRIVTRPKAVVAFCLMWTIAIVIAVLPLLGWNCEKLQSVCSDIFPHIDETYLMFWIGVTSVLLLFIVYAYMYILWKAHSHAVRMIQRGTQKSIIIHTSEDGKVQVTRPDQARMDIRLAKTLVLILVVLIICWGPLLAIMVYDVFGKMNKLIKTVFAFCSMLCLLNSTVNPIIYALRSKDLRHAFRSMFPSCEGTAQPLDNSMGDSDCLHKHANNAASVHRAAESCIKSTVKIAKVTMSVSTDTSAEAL
T2 sequence (P34972 whole entry): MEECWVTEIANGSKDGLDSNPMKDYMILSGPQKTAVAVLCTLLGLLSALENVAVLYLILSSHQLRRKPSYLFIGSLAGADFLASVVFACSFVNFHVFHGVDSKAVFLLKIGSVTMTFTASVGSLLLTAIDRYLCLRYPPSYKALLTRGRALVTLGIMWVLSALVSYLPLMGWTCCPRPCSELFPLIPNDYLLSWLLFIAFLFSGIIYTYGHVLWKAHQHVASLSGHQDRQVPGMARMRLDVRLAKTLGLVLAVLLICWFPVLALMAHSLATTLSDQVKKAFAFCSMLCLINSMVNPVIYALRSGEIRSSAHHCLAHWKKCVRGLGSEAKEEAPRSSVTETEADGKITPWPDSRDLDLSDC
T1 sequence (P20272 whole entry): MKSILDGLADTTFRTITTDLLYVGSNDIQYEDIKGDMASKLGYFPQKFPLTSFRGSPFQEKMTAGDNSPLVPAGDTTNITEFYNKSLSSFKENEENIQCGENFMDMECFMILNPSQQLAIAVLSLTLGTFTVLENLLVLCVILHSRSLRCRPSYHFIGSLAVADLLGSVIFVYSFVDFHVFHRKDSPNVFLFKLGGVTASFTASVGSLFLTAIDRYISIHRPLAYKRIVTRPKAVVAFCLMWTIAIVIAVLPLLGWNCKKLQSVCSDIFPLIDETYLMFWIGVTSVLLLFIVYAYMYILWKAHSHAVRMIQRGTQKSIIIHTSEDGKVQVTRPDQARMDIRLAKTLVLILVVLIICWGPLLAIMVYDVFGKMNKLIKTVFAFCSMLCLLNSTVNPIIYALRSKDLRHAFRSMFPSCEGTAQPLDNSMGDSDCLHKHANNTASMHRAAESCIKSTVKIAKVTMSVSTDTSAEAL

In the case of `CC(C)(N[C@@H]1C[C@H](c2cccc(OC(F)(F)F)c2)N(c2ccc(C(F)(F)F)cc2)C1=O)c1cccc(C(F)(F)F)n1` [Example 11, (3R,5R)-3-[1-Methyl-1-(6-trifluoromethyl-pyridin-2-yl)-ethylamino]-5-(3-trifluoromethoxy-phenyl)-1-(4-trifluoromethyl-phenyl)-pyrrolidin-2-one], the “minimum effective dose (MED) in forced swim test” value with Male NIH Swiss mice (mice, p.o.) was found to be 3 mg/kg.
As to `CC(C)(N[C@@H]1C[C@H](c2cccc(OC(F)(F)F)c2)N(c2ccc(C#N)cc2)C1=O)c1cccc(C(F)(F)F)n1` [Example 27HCl Salt, 4-[(3R,5R)-3-[1-methyl-1-(6-trifluoromethyl-pyridin-2-yl)-ethylamino]-2-oxo-5-(3-trifluoromethoxy-phenyl)-pyrrolidin-1-yl]-benzonitrile hydrochloride], the bioavailability in “Rat oral bioavailability” stood at 58 ± 8.6%; in the data set “Dog oral bioavailability”, 33 ± 13%.
`CC(C)(N[C@@H]1C[C@H](c2cccc(C(F)(F)F)c2)N(c2ccc(OC(F)(F)F)cc2)C1=O)c1cccc(C(F)(F)F)n1` [Example 28, (3R,5R)-3-[1-Methyl-1-(6-trifluoromethyl-pyridin-2-yl)-ethylamino]-5-(3-trifluoromethyl-phenyl)-1-(4-trifluoromethoxy-phenyl)-pyrrolidin-2-one]: the Kb is 0.756 nM on rCB-1, greater than 11900 nM at hCB-2 [1], 1.76 nM on hCB-1 [3] and 2.37 nM on hCB-1 [4]. The EC50 was greater than 100000 nM on hCB-2 [2] and 3.02 nM on hCB-1 [5]. For the same compound, in the data set on Male NIH Swiss mice (mice, p.o.), the “minimum effective dose (MED) in forced swim test” value worked out at 10 mg/kg.
Turning to `CC(C)(N[C@@H]1C[C@H](c2cccc(OC(F)(F)F)c2)N(c2ccc(C#N)cc2)C1=O)c1cccc(C(F)(F)F)n1` [Example 27, 4-[(3R,5R)-3-[1-Methyl-1-(6-trifluoromethyl-pyridin-2-yl)-ethylamino]-2-oxo-5-(3-trifluoromethoxy-phenyl)-pyrrolidin-1-yl]-benzonitrile], the Seconds of immobility came out at 170 s with Male NIH Swiss mice (1 mg/Kg p.o., mice); 128 s in the data set with Male NIH Swiss mice (3 mg/Kg p.o., mice); 80 s with Male NIH Swiss mice (10 mg/Kg p.o., mice). For the same compound, the “Dunett's Test (0.05) * against vehicle, # against Imipramine” value in the data set on Male NIH Swiss mice (1 mg/Kg) is reported as “#”; in the data set on Male NIH Swiss mice (3 mg/Kg) it was “*”; with Male NIH Swiss mice (10 mg/Kg), “*”. Also, the “duration of immobility in forced swim test” value with Male NIH Swiss mice (mice, p.o., result in words) is on record as “significantly reduce the duration of mobility in a dose dependent manner”.
As for `CN(C)CCCN1c2ccccc2CCc2ccccc21` [Imipramine, reference compound], the “Dunett's Test (0.05) * against vehicle, # against Imipramine” value in the data set on Male NIH Swiss mice (15 mg/Kg) is “*”. For the same compound, the Seconds of immobility with Male NIH Swiss mice (15 mg/Kg, mice) worked out at 80 s.
